This note sets out measurements from the Deep4Chem optical property database.

“And” between values parts separate entries of the source, which are not always exact repeats. Equal entries are not always repeated.

The nature of the data set: photoluminescence quantum yield (fraction); solvent given as SMILES.

For the molecule `CN(C)c1ccc(C2=Cc3c4ccccc4cc[n+]3[B-](F)(F)O2)cc1`, the photoluminescence quantum yield reads like this: (in C1CCOC1) 0.658; (in C1COCCO1) 0.863; (in CC1CCCCC1) 0.979; (in CC#N) 0.638; (in CCOC(C)=O) 0.663; (in CCOCC) 0.848. The photoluminescence quantum yield came to 0.561 (in CN(C)C=O), 0.499 (in CO), 0.587 (in COC(C)=O) and 0.743 (in ClC(Cl)Cl).
Consider `CCCCCCOc1ccc(N(c2ccc(OCCCCCC)cc2)c2ccc(-c3sc(-c4ccc(N(c5ccc(OCCCCCC)cc5)c5ccc(OCCCCCC)cc5)cc4)c4nc(-c5ccc(OC)cc5)c(-c5ccc(OC)cc5)nc34)cc2)cc1`, for which the photoluminescence quantum yield reads like this: (in CN(C)C=O) 0.0287; (in ClC(Cl)Cl) 0.014.
On to `N#Cc1ccc(-n2c(-c3ccc(-c4ccc(-n5c6ccccc6c6ccccc65)cc4)s3)nc3c4ccccc4c4ccccc4c32)c2ccccc12`, for which, under “in ClCCl”, the photoluminescence quantum yield stood at 0.78.
For the molecule `COc1ccc(C(=O)NN2C3=C(CC4=C2CCCC4=O)C(=O)CCC3)cc1`, the photoluminescence quantum yield (in CC#N) is 0.59; the photoluminescence quantum yield (in CC(C)=O) was 0.48; the photoluminescence quantum yield (in CCCCCO) is 0.6; the photoluminescence quantum yield (in CO) turned out to be 0.32; the photoluminescence quantum yield (in ClC(Cl)Cl) is 0.57; the photoluminescence quantum yield (in ClCCl) was determined as 0.57.
Where the note is “in CO”, `CCN(CC)c1ccc(C2=C3C(C)=CC(/C=C/c4ccc(OCC(=O)OC)cc4)=[N+]3[B-](F)(F)n3c(C)cc(C)c32)cc1` had a photoluminescence quantum yield of 0.87.
Molecule `c1cc2c3c(c1)OCCCCCCCCOc1cccc(c1-c1c4ccccc4c-3c3ccccc13)OCCCCCCCCO2` yielded a photoluminescence quantum yield (in C1CCCCC1) of 0.95.
`CN(C)c1ccc2nc3c(cc2c1)c(-c1ccccc1)nn3-c1ccccc1`: the photoluminescence quantum yield (in C1CCCCC1) was 0.84; the photoluminescence quantum yield (in C1CCOC1) came to 0.62; the photoluminescence quantum yield (in CC#N) stood at 0.57; the photoluminescence quantum yield (in CC(C)=O) stood at 0.58; the photoluminescence quantum yield (in CCCCCl) came to 0.64; the photoluminescence quantum yield (in CCCCOCCCC) was 0.77. This molecule also returned a photoluminescence quantum yield (in CN(C)C=O) of 0.46.
`CCN(CC)c1ccc2cc(-c3ccc(-c4ccc(-c5cc6ccccc6oc5=O)cc4)cc3)c(=O)oc2c1`: the photoluminescence quantum yield (in ClCCl) turned out to be 0.59.
As for `Ic1ccc(-c2c3ccc(=[N+]4CCCCC4)cc-3oc3cc(N4CCCCC4)ccc23)cc1`, the photoluminescence quantum yield (in CCO) came to 0.28 and the photoluminescence quantum yield (in ClCCl) was 0.85.
Consider `COc1ccc2c(c1)c1c(c3cc(OC)ccc32)=[N+]2C(=C(c3c(C)cc(C)cc3C)c3cc4c5cc(OC)ccc5c5ccc(OC)cc5c4n3[B-]2(F)F)C=1`, for which the photoluminescence quantum yield reads like this: (in C1CCCCC1) 0.08; (in C1CCOC1) 0.001; (in CC#N) 0.01; (in Cc1ccccc1) 0.001; (in ClCCl) 0.001.
`CCC1(CC)c2cc(C#Cc3cc(C#Cc4ccc5c(c4)C(CC)(CC)c4cc(N(c6ccccc6)c6ccccc6)ccc4-5)c4ccc5c(C#Cc6ccc7c(c6)C(CC)(CC)c6cc(N(c8ccccc8)c8ccccc8)ccc6-7)cc(C#Cc6ccc7c(c6)C(CC)(CC)c6cc(N(c8ccccc8)c8ccccc8)ccc6-7)c6ccc3c4c65)ccc2-c2ccc(N(c3ccccc3)c3ccccc3)cc21`: the photoluminescence quantum yield (in Cc1ccccc1) worked out at 0.43.
With `C/C(=N\Nc1ccc(C#N)cc1)c1ccccn1`, the photoluminescence quantum yield (in CO) was determined as 0.28.
As for `CCN(CC)/C(C)=N\c1ccc2c3c(cccc13)C(=O)c1ccccc1-2`, the photoluminescence quantum yield is 0.17 (in C1CCOC1); 0.21 (in CCCCCC); 0.14 (in CCO); 0.22 (in CCOC(C)=O); 0.15 (in CN(C)C=O); 0.14 (in CO). Further, the photoluminescence quantum yield was 0.56 (in Cc1ccccc1); 0.31 (in ClC(Cl)(Cl)Cl); 0.49 (in ClC(Cl)Cl); 0.5 (in ClCCl); 0.55 (in c1ccccc1).
`c1ccc(-c2nc(-c3ccc(-c4ccc(-c5nc(-c6ccccc6)c(-c6ccccc6)o5)cc4)cc3)oc2-c2ccccc2)cc1` came in with a photoluminescence quantum yield (in C1COCCO1) of 0.74.
As for `Cc1cc(C)c(C2=C3C=CC4=[N+]3[B-]3(Oc5ccccc54)Oc4ccccc4-c4ccc2n43)c(C)c1` (centres undefined), for the setting “in ClC(Cl)Cl”, the photoluminescence quantum yield was 0.72.
`C(=C\c1nc2ccccc2s1)/c1ccccc1`: the photoluminescence quantum yield runs as follows: (in C1CCCCC1) 0.04; (in CO) 0.007.
For `N#Cc1c(C#N)c2cc(Cl)c(Cl)cc2c2cc(Cl)c(Cl)cc12`, the photoluminescence quantum yield (in ClC(Cl)Cl) came to 0.01.
Same read-out and setting: in the case of `Clc1ccc(-c2nc(-c3ccccc3)c(N(c3ccccc3)c3ccccc3)s2)cc1` it was 0.56.
On to `CCCCCCN1C(=O)C(c2ccc(-c3ccc(-n4c5ccccc5c5ccccc54)cc3)cc2)=C(c2ccc(-c3ccc(-n4c5ccccc5c5ccccc54)cc3)cc2)C1=O`, for which the photoluminescence quantum yield runs as follows: (in ClC(Cl)Cl) 0.84; (in c1ccc2c(c1)c1ccccc1n2-c1ccc(-c2ccc(-n3c4ccccc4c4ccccc43)cc2)cc1) 0.57.
`CC1=[N+]2C(=C(c3ccccc3)c3c4c5ccccc5c5ccccc5c4c(C)n3[B-]2(F)F)c2c1c1ccccc1c1ccccc21` showed a photoluminescence quantum yield (in CCCCCC) of 0.94.
Regarding `CCN(CC)c1ccc2cc(/C=C(\C#N)c3nc4ccccc4s3)c(=O)oc2c1`, the photoluminescence quantum yield by setting is: (in C1COCCO1) 0.0043; (in CC#N) 0.0027; (in CCO) 0.0048; (in CCOC(C)=O) 0.0035; (in CN(C)C=O) 0.0122; (in CO) 0.0061. In addition, the photoluminescence quantum yield runs as follows: (in CS(C)=O) 0.0104; (in Cc1ccccc1) 0.0036; (in ClCCl) 0.0033.
Where the note is “in ClCCl”, `COC(=O)CCC1=CC(C#Cc2ccsc2)=[N+]2C1=Cc1c(CCC(=O)OC)cc(C#Cc3ccsc3)n1[B-]2(F)F` returned a photoluminescence quantum yield of 0.39.
In the case of `Clc1ccc(/C=C(\c2ccccc2)c2nc3ccccc3s2)cc1`, the photoluminescence quantum yield reads like this: (in C1CCCCC1) 0.001; (in CO) 0.001.
For the setting “in O=P(c1ccccc1)(c1ccccc1)c1ccccc1Oc1ccccc1P(=O)(c1ccccc1)c1ccccc1”, `c1ccc(-c2nc(-c3ccccc3)nc(-c3ccc(-n4c5ccccc5c5cc6c(cc54)C4(c5ccccc5-c5ccccc54)c4ccccc4-6)cc3)n2)cc1` showed a photoluminescence quantum yield of 0.856.
In the case of `CN(C)c1ccc(/C=C/c2cc(/C=C/c3ccc(N(C)C)cc3)nc(/C=C/c3ccc(C(F)(F)F)cc3)n2)cc1`, under “in ClCCl”, the photoluminescence quantum yield was found to be 0.72.
Take `CCN(CC)c1ccc2c(-c3ccccc3C(=O)[O-])c3ccc(=[N+](CC)CC)cc-3oc2c1`: the photoluminescence quantum yield is 0.4 (in CC#N); 0.66 (in CCO); 0.42 (in CN(C)C=O); 0.7 (in CO); 0.36 and 0.31 (in O).
In turn, `Fc1cccc(-[c+]2c3ccccc3oc3ccccc32)c1` came in with a photoluminescence quantum yield (in CC#N) of 0.18.
As for `N#Cc1cnc(-c2c3ccccc3c(-c3ncc(C#N)cn3)c3ccccc23)nc1`, the photoluminescence quantum yield (in CCO) came out at 0.16 and the photoluminescence quantum yield (in ClCCl) is 0.54.
In the case of `O=C(O)C1=C/C(=C/C=[N+]2/c3cc(O)c(C[C@@H]4O[C@H](CO)[C@@H](O)C(O)[C@H]4O)cc3C[C@H]2C(=O)O)C[C@@H](C(=O)O)N1` (some centres undefined), the photoluminescence quantum yield by setting is: (in CO) 0.0013; (in O) 0.0007; (in OCCO) 0.0046; (in [2H]O[2H]) 0.0011.
